The results in this text go back to ChEMBL document CHEMBL1145637, “Dual binding site inhibitors of B-RAF kinase” (Bioorg Med Chem Lett, 2008).

Data set [1] is described as follows: Inhibition of ERK phosphorylation.
Data set [2] can be described thus: Metabolic stability in human liver microsome after 30 mins. As to conditions: liver microsomes, read-out: Stability. Type of data set: ADME.
Data set [3] in a line: (§1) Metabolic stability in rat liver microsome after 30 mins. Type of data set: ADME, microsomes. Particulars: liver microsomes, read-out: Stability.
Data set [4] addresses RAF proto-oncogene serine/threonine-protein kinase (Homo sapiens, UniProt P04049). Briefly: Inhibition of C-RAF kinase.
Data set [5] in a line: Aqueous solubility in NaH2PO4 at pH 7.4 after 24 hrs by HPLC. The format is physicochemical. Particulars: for solubility at 24 h: NaH2PO4 buffer, pH 7.4; for Activity: buffer, pH 7.4, 24 h.
In data set [6] the target is Serine/threonine-protein kinase B-raf (Homo sapiens, UniProt P15056).
Description: Inhibition of B-RAF kinase
The target of data set [7] is Serine/threonine-protein kinase B-raf (Homo sapiens, UniProt P15056, V600E).
Description: Inhibition of B-RAF V600E mutant
Data set [8] deals with Liver microsomes. Described as §1. Type of data set: ADME. Particulars: microsomes, 0.5 h.

Each structure is given as a SMILES string. pIC50: −log10 of the molar value. Values after ≈ are worked out from the molar mass of the structure shown. Active and inactive are the calls of the source. The calls are words filed in the database; no cut-off is given here.

Sequence of Serine/threonine-protein kinase B-raf (Homo sapiens, UniProt P15056) (P15056 whole entry): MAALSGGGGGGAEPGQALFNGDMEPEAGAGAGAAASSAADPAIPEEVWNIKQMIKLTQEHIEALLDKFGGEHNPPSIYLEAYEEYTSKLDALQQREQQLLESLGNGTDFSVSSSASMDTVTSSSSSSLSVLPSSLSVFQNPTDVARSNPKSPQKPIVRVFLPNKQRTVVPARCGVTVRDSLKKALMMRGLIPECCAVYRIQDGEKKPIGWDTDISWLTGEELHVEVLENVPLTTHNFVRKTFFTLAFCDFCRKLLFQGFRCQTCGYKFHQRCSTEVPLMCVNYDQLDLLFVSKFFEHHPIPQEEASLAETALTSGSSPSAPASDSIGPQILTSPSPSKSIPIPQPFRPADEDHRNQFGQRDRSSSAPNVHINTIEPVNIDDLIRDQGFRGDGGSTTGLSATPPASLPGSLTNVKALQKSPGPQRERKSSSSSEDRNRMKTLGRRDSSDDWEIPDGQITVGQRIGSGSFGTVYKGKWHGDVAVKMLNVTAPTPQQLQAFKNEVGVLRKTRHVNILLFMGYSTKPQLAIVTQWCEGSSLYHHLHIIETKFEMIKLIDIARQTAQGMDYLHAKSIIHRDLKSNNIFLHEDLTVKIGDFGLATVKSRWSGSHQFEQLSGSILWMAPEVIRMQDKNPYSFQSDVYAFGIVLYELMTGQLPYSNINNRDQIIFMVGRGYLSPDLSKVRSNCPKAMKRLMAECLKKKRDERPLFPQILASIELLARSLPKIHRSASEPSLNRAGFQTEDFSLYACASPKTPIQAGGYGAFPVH
Sequence of RAF proto-oncogene serine/threonine-protein kinase (P04049 whole entry): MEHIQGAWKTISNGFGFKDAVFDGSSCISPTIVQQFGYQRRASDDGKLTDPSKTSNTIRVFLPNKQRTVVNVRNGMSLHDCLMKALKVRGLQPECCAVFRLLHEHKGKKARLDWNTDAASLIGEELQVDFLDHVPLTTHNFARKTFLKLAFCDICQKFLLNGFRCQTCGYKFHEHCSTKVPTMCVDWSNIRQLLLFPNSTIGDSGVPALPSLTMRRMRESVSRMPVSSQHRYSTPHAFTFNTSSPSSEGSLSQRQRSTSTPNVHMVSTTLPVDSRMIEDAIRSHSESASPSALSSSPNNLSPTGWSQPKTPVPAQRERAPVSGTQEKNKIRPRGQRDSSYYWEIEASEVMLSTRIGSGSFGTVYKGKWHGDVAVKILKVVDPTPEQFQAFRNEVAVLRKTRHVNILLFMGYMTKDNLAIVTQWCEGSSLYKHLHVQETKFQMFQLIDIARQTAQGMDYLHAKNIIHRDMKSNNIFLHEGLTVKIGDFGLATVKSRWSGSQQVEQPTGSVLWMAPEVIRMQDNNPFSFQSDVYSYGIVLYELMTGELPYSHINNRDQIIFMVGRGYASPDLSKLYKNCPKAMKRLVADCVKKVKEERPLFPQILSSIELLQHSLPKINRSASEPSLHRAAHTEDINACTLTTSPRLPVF
Sequence of Serine/threonine-protein kinase B-raf (Homo sapiens, UniProt P15056, V600E) (P15056 2-766 V600E limits assumed): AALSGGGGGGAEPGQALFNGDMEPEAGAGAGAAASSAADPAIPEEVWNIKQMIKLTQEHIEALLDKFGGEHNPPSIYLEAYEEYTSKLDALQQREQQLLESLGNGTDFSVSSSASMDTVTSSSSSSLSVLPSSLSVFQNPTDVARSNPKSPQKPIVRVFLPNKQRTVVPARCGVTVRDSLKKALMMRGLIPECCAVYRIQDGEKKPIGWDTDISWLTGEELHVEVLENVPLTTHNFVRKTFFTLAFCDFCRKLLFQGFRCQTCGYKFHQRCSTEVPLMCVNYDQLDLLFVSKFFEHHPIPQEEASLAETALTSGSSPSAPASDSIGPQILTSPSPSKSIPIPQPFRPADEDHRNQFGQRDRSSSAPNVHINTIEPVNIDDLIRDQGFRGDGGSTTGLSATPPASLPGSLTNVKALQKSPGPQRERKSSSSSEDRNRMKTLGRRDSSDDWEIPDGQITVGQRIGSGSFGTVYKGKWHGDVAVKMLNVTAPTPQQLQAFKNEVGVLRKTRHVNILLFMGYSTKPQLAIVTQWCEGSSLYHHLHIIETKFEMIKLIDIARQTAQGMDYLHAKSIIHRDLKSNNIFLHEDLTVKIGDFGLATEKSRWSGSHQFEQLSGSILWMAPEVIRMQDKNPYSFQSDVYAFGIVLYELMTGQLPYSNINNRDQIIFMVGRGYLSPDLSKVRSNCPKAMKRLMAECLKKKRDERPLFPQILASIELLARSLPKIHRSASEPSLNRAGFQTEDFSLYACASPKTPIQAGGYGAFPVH

For `CNc1nccc(-c2[nH]c(C(F)(F)F)nc2-c2cccc(NC(=O)Cc3ccc(Cl)cc3)c2)n1`, the negative logarithm of the IC50 (pIC50) (usually the IC50 on a negative log10 scale, so that one unit is a factor of ten) in data set [1] is 4.90; in data set [4], 8.70; in data set [6] it was 7.52; in data set [7], 7.74. For the same molecule, the results for the remaining at 0.5 h in data set [2] and in data set [3] were 74% and 81%, respectively. For the same molecule, the concentration in solution in data set [5] (solubility at 24 h) was 0.48 µM (≈ 0.234 µg/mL).

Consider `NC(=O)c1cccc(Nc2nccc(-c3nc(C4CC4)[nH]c3-c3cccc(NS(=O)(=O)Cc4ccc(Cl)c(Cl)c4)c3)n2)c1`, for which the remaining at 0.5 h in data set [2] was found to be 76%; in data set [3] it was 44%. For the same molecule, the pIC50 in data set [4] was 7.31; in data set [6], 6.05; in data set [7] it was 6.56. For the same molecule, the Activity result in data set [5] is reported as “Not Active”.

In the case of `NC(=O)c1cccc(Nc2nccc(-c3[nH]c(C4CC4)nc3-c3cccc(NC(=O)Cc4ccc(Cl)cc4)c3)n2)c1`, the pIC50 in data set [1] was 5.62; in data set [4] it was 9.30; in data set [6] it was 8.40; in data set [7] it was 8.52. Further, the remaining at 0.5 h in data set [2] is 53%; in data set [3] it was 58%. The concentration in solution in data set [5] (solubility at 24 h) was 0.5 µM (≈ 0.282 µg/mL).

`O=C(Cc1ccc(Cl)cc1)Nc1cccc(-c2nc(C(F)(F)F)[nH]c2-c2ccnc(NCCN3CCNC3=O)n2)c1`: the pIC50 in data set [1] was 4.52; in data set [4], 7.70; in data set [6], 7.27; in data set [7], 7.40. For the same molecule, the figures for the remaining at 0.5 h in data set [2] and in data set [3] were 73% and 34%, respectively. Besides, in data set [5], the solubility (in general, the dissolved amount per volume that the medium holds) at 24 h came out at 7.5 µM (≈ 4.39 µg/mL).

Take `CNC(=O)c1cc(Oc2ccc(NC(=O)Nc3ccc(Cl)c(C(F)(F)F)c3)cc2)ccn1` [SORAFENIB]: in data set [1], the pIC50 was 5.08. Further, the remaining at 0.5 h in data set [2] is 80%. For the same molecule, the Activity entry in data set [8] is listed as “Not Active”. The same molecule registered a solubility at 24 h in data set [5] of 6.3 µM (≈ 2.93 µg/mL).

Take `NC(=O)c1cccc(Nc2nccc(-c3[nH]c(C4CC4)nc3-c3cccc(NC(=O)Nc4ccc(Cl)c(C(F)(F)F)c4)c3)n2)c1`: the negative logarithm of the IC50 (pIC50) was 5.68 in data set [1], 7.51 in data set [4], 7.46 in data set [6] and 7.21 in data set [7]. Further, the solubility at 24 h in data set [5] stood at 0.4 µM (≈ 0.253 µg/mL).

`NC(=O)c1cccc(Nc2nccc(-c3[nH]c(C(F)(F)F)nc3-c3cccc(NC(=O)Cc4ccc(Cl)cc4)c3)n2)c1`: the pIC50 in data set [1] was 4.52; in data set [4], 7.77; in data set [6], 6.97; in data set [7] it was 7.07. The remaining at 0.5 h in data set [2] is 71%; in data set [3] it was 47%. In data set [5], this molecule came in with a solubility at 24 h of 0.35 µM (≈ 0.207 µg/mL).

Consider `O=C(Cc1ccc(Cl)cc1)Nc1cccc(-c2nc(C3CC3)[nH]c2-c2ccnc(NCCN3CCNC3=O)n2)c1`, for which the pIC50 is 5.52 in data set [1], 9.00 in data set [4], 8.15 in data set [6] and 8.70 in data set [7]. In addition, the remaining at 0.5 h is 38% in data set [2] and 60% in data set [3]. The solubility at 24 h in data set [5] is 35 µM (≈ 19.5 µg/mL).

Turning to `NC(=O)c1cccc(Nc2nccc(-c3[nH]c(C4CC4)nc3-c3cccc(NS(=O)(=O)Cc4ccc(Cl)c(Cl)c4)c3)n2)c1`, in data set [1], the outcome was inactive.

Take `O=C1NCCN1CCNc1nccc(-c2nc(C3CC3)[nH]c2-c2cccc(NS(=O)(=O)Cc3ccc(Cl)c(Cl)c3)c2)n1`: the remaining at 0.5 h is 85% in data set [2] and 52% in data set [3]. For the same molecule, the values for the negative-log IC50 (pIC50) in data set [4], in data set [6] and in data set [7] were 7.39, 6.46 and 6.85, respectively. Further, in data set [5], the Activity result is given as “Not Active”.

Consider `O=C1NCCN1CCNc1nccc(-c2[nH]c(C3CC3)nc2-c2cccc(NS(=O)(=O)Cc3ccc(Cl)c(Cl)c3)c2)n1`, for which the result in data set [1] was inactive.

Consider `CC(C)(C)NC(=O)NCCNc1nccc(-c2[nH]c(C3CC3)nc2-c2ccccc2Cl)n1`, for which, in data set [6], the negative-log IC50 (pIC50) was 7.08.

For `CNc1nccc(-c2[nH]c(C3CC3)nc2-c2cccc(NC(=O)Cc3ccc(Cl)cc3)c2)n1`, the pIC50 in data set [1] is 5.29; in data set [4] it was 9.00; in data set [6] it was 8.05; in data set [7] it was 8.52. In data set [5], this molecule had a solubility at 24 h of 0.4 µM (≈ 0.184 µg/mL).

Take `CNc1nccc(-c2[nH]c(C3CC3)nc2-c2cccc(NC(=O)Nc3ccc(Cl)c(C(F)(F)F)c3)c2)n1`: the pIC50 is 5.85 in data set [1], 8.30 in data set [4], 7.68 in data set [6] and 7.80 in data set [7]. Further, the remaining at 0.5 h in data set [2] was 80%; in data set [3] it was 57%. The solubility at 24 h in data set [5] turned out to be 0.3 µM (≈ 0.158 µg/mL).

In turn, `O=C1NCCN1CCNc1nccc(-c2nc(C3CC3)[nH]c2-c2cc(Cl)ccc2Cl)n1` had a pIC50 in data set [6] of 8.00.

On to `O=C(Nc1cccc(-c2nc(C3CC3)[nH]c2-c2ccnc(NCCN3CCNC3=O)n2)c1)Nc1ccc(Cl)c(C(F)(F)F)c1`, for which the pIC50 was 5.64 in data set [1], 7.85 in data set [4], 7.18 in data set [6] and 7.66 in data set [7]. Further, the remaining at 0.5 h was 50% in data set [2] and 44% in data set [3]. The molecule further displayed a solubility at 24 h in data set [5] of 6.2 µM (≈ 3.88 µg/mL).

In the case of `CNc1nccc(-c2[nH]c(C3CC3)nc2-c2cccc(NS(=O)(=O)Cc3ccc(Cl)c(Cl)c3)c2)n1`, in data set [1], the outcome was inactive. Further, the remaining at 0.5 h in data set [2] came to 60%; in data set [3], 87%. Also, the pIC50 was 7.59 in data set [4], 6.33 in data set [6] and 6.86 in data set [7]. The Activity result in data set [5] was “Not Active”.
